From patent US8183262B2, “Pyridine derivatives as mGluR2 antagonists” (Hoffmann-La Roche Inc., priority 2007, dated 2012)

melting point | Compound
195.5 °C | O=S(=O)(NC1CC1)c1cccc(-c2cc(-c3nc(-c4ccc(C(F)(F)F)cc4)cc(C(F)(F)F)n3)ccn2)c1 [Example 409, N-Cyclopropyl-3-{4-[4-trifluoromethyl-6-(4-trifluoromethyl-phenyl)-pyrimidin-2-yl]-pyridin-2-yl}-benzenesulfonamide]
202 °C | NS(=O)(=O)c1cccc(-c2cccc(-c3nc(-c4ccc(Cl)cc4Cl)cc(C(F)(F)F)n3)c2)c1 [Example 410, 3′-[4-(2,4-Dichloro-phenyl)-6-trifluoromethyl-pyrimidin-2-yl]-biphenyl-3-sulfonic acid amide]
237.5 °C | NS(=O)(=O)c1ccc(-c2cccc(-c3nc(-c4ccc(Cl)cc4Cl)cc(C(F)(F)F)n3)c2)s1 [Example 411, 5-{3-[4-(2,4-Dichloro-phenyl)-6-trifluoromethyl-pyrimidin-2-yl]-phenyl}-thiophene-2-sulfonic acid amide]
224.5 °C | NS(=O)(=O)c1cccc(-c2cccc(-c3nc(-c4ccc(C(F)(F)F)cc4F)cc(C(F)(F)F)n3)c2)c1 [Example 412, 3′-[4-(2-Fluoro-4-trifluoromethyl-phenyl)-6-trifluoromethyl-pyrimidin-2-yl]-biphenyl-3-sulfonic acid amide]
192 °C | NS(=O)(=O)c1ccc(-c2cccc(-c3nc(-c4ccc(C(F)(F)F)cc4F)cc(C(F)(F)F)n3)c2)s1 [Example 413, 5-{3-[4-(2-Fluoro-4-trifluoromethyl-phenyl)-6-trifluoromethyl-pyrimidin-2-yl]-phenyl}-thiophene-2-sulfonic acid amide]
280 °C | Cc1cc(-c2cc(C(F)(F)F)nc(-c3ccnc(-c4ccc(S(N)(=O)=O)s4)c3)n2)ccc1Cl [Example 414, 5-{4-[4-(4-Chloro-3-methyl-phenyl)-6-trifluoromethyl-pyrimidin-2-yl]-pyridin-2-yl}-thiophene-2-sulfonic acid amide]
234 °C | Cc1cc(-c2cc(C(F)(F)F)nc(-c3ccnc(-c4cccc(S(N)(=O)=O)c4)c3)n2)ccc1Cl [Example 415, 3-{4-[4-(4-Chloro-3-methyl-phenyl)-6-trifluoromethyl-pyrimidin-2-yl]-pyridin-2-yl}-benzenesulfonamide]
222.5 °C | Cc1cc(-c2ccc(C(F)(F)F)c(C)c2)nc(-c2cccc(-c3cccc(S(N)(=O)=O)c3)c2)n1 [Example 416, 3′-[4-Methyl-6-(3-methyl-4-trifluoromethyl-phenyl)-pyrimidin-2-yl]-biphenyl-3-sulfonic acid amide]
242 °C | Cc1cc(-c2ccc(C(F)(F)F)c(C)c2)nc(-c2cccc(-c3ccc(S(N)(=O)=O)s3)c2)n1 [Example 417, 5-{3-[4-Methyl-6-(3-methyl-4-trifluoromethyl-phenyl)-pyrimidin-2-yl]-phenyl}-thiophene-2-sulfonic acid amide]
> 250 °C | Cc1cc(-c2ccc(C(F)(F)F)cc2)nc(-c2cccc(-c3cccc(S(=O)(=O)NC(C)(C)C)c3)n2)n1 [Example 418, N-tert-Butyl-3-{6-[4-methyl-6-(4-trifluoromethyl-phenyl)-pyrimidin-2-yl]-pyridin-2-yl}-benzenesulfonamide]
239 °C (dec.) | Cc1cc(-c2ccc(C(F)(F)F)cc2)nc(-c2cccc(-c3cccc(S(N)(=O)=O)c3)n2)n1 [Example 419, 3-{6-[4-Methyl-6-(4-trifluoromethyl-phenyl)-pyrimidin-2-yl]-pyridin-2-yl}-benzenesulfonamide]
176 °C | CNS(=O)(=O)c1cccc(-c2cccc(-c3cc(-c4ccc(C(F)(F)F)cc4)cc(C)n3)n2)c1 [Example 422, N-Methyl-3-[6′-methyl-4′-(4-trifluoromethyl-phenyl)-[2,2′]bipyridinyl-6-yl]-benzenesulfonamide]
155 °C | Cc1cc(-c2ccc(C(F)(F)F)cc2)cc(-c2cccc(-c3cccc(S(=O)(=O)N(C)C)c3)n2)n1 [Example 423, N,N-Dimethyl-3-[6′-methyl-4′-(4-trifluoromethyl-phenyl)-[2,2′]bipyridinyl-6-yl]-benzenesulfonamide]
150 °C | Cc1cc(-c2ccc(C(F)(F)F)cc2)cc(-c2cccc(-c3cccc(S(=O)(=O)NC4CC4)c3)n2)n1 [Example 424, N-Cyclopropyl-3-[6′-methyl-4′-(4-trifluoromethyl-phenyl)-[2,2′]bipyridinyl-6-yl]-benzenesulfonamide]
157 °C | Cc1cc(-c2ccc(C(F)(F)F)cc2)cc(-c2cccc(-c3cccc(S(=O)(=O)N(C)C4CC4)c3)n2)n1 [Example 425, N-Cyclopropyl-N-methyl-3-[6′-methyl-4′-(4-trifluoromethyl-phenyl)-[2,2′]bipyridinyl-6-yl]-benzenesulfonamide]
158 °C | Cc1cc(-c2ccc(C(F)(F)F)cc2)cc(-c2cccc(-c3cccc(S(=O)(=O)N4CCC4)c3)n2)n1 [Example 426, 6′-[3-(Azetidine-1-sulfonyl)-phenyl]-6-methyl-4-(4-trifluoromethyl-phenyl)-[2,2′]bipyridinyl]

melting point | Compound
195 °C | Cc1cc(-c2ccc(C(F)(F)F)cc2)cc(-c2cccc(-c3cccc(S(=O)(=O)N4CCC(O)CC4)c3)n2)n1 [Example 427, 1-{3-[6′-Methyl-4′-(4-trifluoromethyl-phenyl)-[2,2′]bipyridinyl-6-yl]-benzenesulfonyl}-piperidin-4-ol]
205 °C | Cc1cc(-c2ccc(C(F)(F)F)cc2)cc(-c2cccc(-c3cccc(S(=O)(=O)N4CC(O)C4)c3)n2)n1 [Example 428, 1-{3-[6′-Methyl-4′-(4-trifluoromethyl-phenyl)-[2,2′]bipyridinyl-6-yl]-benzenesulfonyl}-azetidin-3-ol]
107 °C | COC1CCN(S(=O)(=O)c2cccc(-c3cccc(-c4cc(-c5ccc(C(F)(F)F)cc5)cc(C)n4)n3)c2)CC1 [Example 429, 6′-[3-(4-Methoxy-piperidine-1-sulfonyl)-phenyl]-6-methyl-4-(4-trifluoromethyl-phenyl)-[2,2′]bipyridinyl]
168 °C | Cc1cc(-c2ccc(C(F)(F)F)cc2)cc(-c2cccc(-c3cccc(S(=O)(=O)NCc4ccccc4)c3)n2)n1 [Example 431, N-Benzyl-3-[6′-methyl-4′-(4-trifluoromethyl-phenyl)-[2,2′]bipyridinyl-6-yl]-benzenesulfonamide]
126 °C (dec.) | COc1ccc(CNS(=O)(=O)c2cccc(-c3cccc(-c4cc(-c5ccc(C(F)(F)F)cc5)cc(C)n4)n3)c2)cc1 [Example 432, N-(4-Methoxy-benzyl)-3-[6′-methyl-4′-(4-trifluoromethyl-phenyl)-[2,2′]bipyridinyl-6-yl]-benzenesulfonamide]
175 °C | Cc1cc(-c2ccc(C(F)(F)F)cc2)cc(-c2cccc(-c3cccc(S(=O)(=O)NCc4ccc(F)cc4)c3)n2)n1 [Example 433, N-(4-Fluoro-benzyl)-3-[6′-methyl-4′-(4-trifluoromethyl-phenyl)-[2,2′]bipyridinyl-6-yl]-benzenesulfonamide]
134 °C (dec.) | Cc1cc(-c2ccc(C(F)(F)F)cc2)cc(-c2cccc(-c3cccc(S(=O)(=O)N4CCC(Oc5ncccn5)CC4)c3)n2)n1 [Example 435, 6-Methyl-6′-{3-[4-(pyrimidin-2-yloxy)-piperidine-1-sulfonyl]-phenyl}-4-(4-trifluoromethyl-phenyl)-[2,2′]bipyridinyl]
148 °C | Cc1cc(-c2ccc(OC(F)(F)F)cc2)cc(-c2cccc(-c3cccc(S(=O)(=O)NC(C)(C)C)c3)n2)n1 [Example 436, N-tert-Butyl-3-[6′-methyl-4′-(4-trifluoromethoxy-phenyl)-[2,2′]bipyridinyl-6-yl]-benzenesulfonamide]
231 °C (dec.) | Cc1cc(-c2ccc(OC(F)(F)F)cc2)cc(-c2cccc(-c3cccc(S(N)(=O)=O)c3)n2)n1 [Example 437, 3-[6′-Methyl-4′-(4-trifluoromethoxy-phenyl)-[2,2′]bipyridinyl-6-yl]-benzenesulfonamide]
150 °C (dec.) | Cc1cc(-c2ccc(C(F)(F)F)c(C)c2)cc(-c2cccc(-c3cccc(S(=O)(=O)NC(C)(C)C)c3)n2)n1 [Example 438, N-tert-Butyl-3-[6′-methyl-4′-(3-methyl-4-trifluoromethyl-phenyl)-[2,2′]bipyridinyl-6-yl]-benzenesulfonamide]
213 °C (dec.) | NS(=O)(=O)c1cccc(-c2cccc(-c3cc(-c4ccc(C(F)(F)F)cc4)cc(CO)n3)n2)c1 [Example 439, 3-[6′-Hydroxymethyl-4′-(4-trifluoromethyl-phenyl)-[2,2′]bipyridinyl-6-yl]-benzenesulfonamide]
> 250 °C | Cc1cc(-c2ccc(C(F)(F)F)c(C)c2)cc(-c2cccc(-c3cccc(S(N)(=O)=O)c3)n2)n1 [Example 440, 3-[6′-Methyl-4′-(3-methyl-4-trifluoromethyl-phenyl)-[2,2′]bipyridinyl-6-yl]-benzenesulfonamide]
255 °C | Cc1cc(-c2ccc(C#N)cc2)nc(-c2cccc(-c3cccc(S(N)(=O)=O)c3)n2)n1 [Example 442, 3-{6-[4-(4-Cyano-phenyl)-6-methyl-pyrimidin-2-yl]-pyridin-2-yl}-benzenesulfonamide]
244 °C | CC(=O)NS(=O)(=O)c1cccc(-c2cccc(-c3cc(-c4ccc(C(F)(F)F)cc4)cc(C)n3)n2)c1 [Example 443, N-Acetyl-3-[6′-methyl-4′-(4-trifluoromethyl-phenyl)-[2,2′]bipyridinyl-6-yl]-benzenesulfonamide]
163 °C (dec.) | Cc1cc(-c2ccc(C(F)(F)F)cc2)cc(-c2cccc(-c3cccc(S(=O)(=O)NC4CCOCC4)c3)n2)n1 [Example 444, 3-[6′-Methyl-4′-(4-trifluoromethyl-phenyl)-[2,2′]bipyridinyl-6-yl]-N-(tetrahydro-pyran-4-yl)-benzenesulfonamide]
135 °C | CCNS(=O)(=O)c1cccc(-c2cccc(-c3cc(-c4ccc(C(F)(F)F)cc4)cc(C)n3)n2)c1 [Example 446, N-Ethyl-3-[6′-methyl-4′-(4-trifluoromethyl-phenyl)-[2,2′]bipyridinyl-6-yl]-benzenesulfonamide]
